We go through one molecule from US9340534B2, “Compounds and methods for treating ocular diseases” (Allergan, Inc., priority 2014, dated 2016).

pEC50: −log10 of the molar value.

Assay [1] concerns the target T1, EP2 (Homo sapiens (Human), UniProt P43116). Kind of assay: EP2 cAMP functional assay. Type of assay: cell-based.
Assay [2] addresses T2, EP4 (Homo sapiens (Human), UniProt P35408). Kind of assay: EP4 radioligand competition binding ([3H]PGE2). To be noted: HEK-293 cells stably expressing receptor, [3H]PGE2 radioligand. The method, then:
HEK-293 cells stably expressing the human or feline FP receptor, or EP1, EP2, or EP4 receptors were washed with TME buffer, scraped from the bottom of the flasks, and homogenized for 30 sec using a Brinkman PT 10/35 polytron. TME buffer was added to achieve a final 40 ml volume in the centrifuge tubes (the composition of TME is 100 mM TRIS base, 20 mM MgCl2, […]; 10N HCl is added to achieve a pH of 7.4).
The cell homogenate was centrifuged at 19000 r.p.m. for 20 min at 4° C. using a Beckman Ti-60 rotor. The resultant pellet was resuspended in TME buffer to give a final 1 mg/ml protein concentration, as determined by Biorad assay. Radioligand binding competition assays vs. [^3H-]17-phenyl PGF2a (5 nM) were performed in a 100 μl volume for 60 min. Binding reactions were started by adding plasma membrane fraction. The reaction was terminated by the addition of 4 ml ice-cold TRIS-HCl buffer and rapid filtration through glass fiber GF/B filters using a Brandel cell harvester. The filters were washed 3 times with ice-cold buffer and oven dried for one hour.
[^3H—] PGE2 (specific activity 180 Ci mmol) was used as the radioligand for EP receptors. [^3H] 17-phenyl PGF2a was employed for FP receptor binding studies. […] 17-phenyl PGF2a and non-specific binding determined with 10^−5M of unlabeled PGE2, or 17-phenyl PGF2a, according to receptor subtype studied.

The target of assay [3] is T2, EP4. Kind of assay: EP4 cAMP functional assay. Type of assay: cell-based.
The target in assay [4] is T1, EP2. Kind of assay: EP2 radioligand competition binding ([3H]PGE2). The settings on record: HEK-293 cells stably expressing receptor, [3H]PGE2 radioligand. The method, then: Competition binding experiments were performed in a medium containing Hank's balanced salt solution, Hepes 20 mM, pH 7.3, membranes (˜60 μg protein) or 2×10^5 cells from HEK 293 cells stably expressing human EP2 receptors, [^3H]PGE2 (10 nM) and various concentrations of test compounds in a total volume of 300 μl. Reaction mixtures were incubated at 23° C. for 60 min, and were filtered over Whatman GF/B filters under vacuum. Filters were washed three times with 5 ml ice-cold buffer containing 50 mM Tris/HCl (pH 7.3). Non-specific binding was estimated in the presence of excess unlabeled PGE2 (10 μM). Binding data fitted to the binding model for a single class of binding sites, using nonlinear regression analysis. IC50 values thus obtained were converted to Ki using the equation of Ki=(IC50/(1+[L]/KD) where [L] represents PGE2 concentration (10 nM) and KD the dissociation constant for [^3H]PGE2 at human EP2 receptors (40 nM). […]
The cell homogenate was centrifuged at 19000 r.p.m. for 20 min at 4° C. using a Beckman Ti-60 rotor. The resultant pellet was resuspended in TME buffer to give a final 1 mg/ml protein concentration, as determined by Biorad assay. […]
[^3H—] […] 17-phenyl PGF2a and non-specific binding determined with 10^−5M of unlabeled PGE2, or 17-phenyl PGF2a, according to receptor subtype studied.
(Loss of bound radioactivity is the signal in a displacement assay; it reports binding, not function.)

T1 sequence (P43116 whole entry): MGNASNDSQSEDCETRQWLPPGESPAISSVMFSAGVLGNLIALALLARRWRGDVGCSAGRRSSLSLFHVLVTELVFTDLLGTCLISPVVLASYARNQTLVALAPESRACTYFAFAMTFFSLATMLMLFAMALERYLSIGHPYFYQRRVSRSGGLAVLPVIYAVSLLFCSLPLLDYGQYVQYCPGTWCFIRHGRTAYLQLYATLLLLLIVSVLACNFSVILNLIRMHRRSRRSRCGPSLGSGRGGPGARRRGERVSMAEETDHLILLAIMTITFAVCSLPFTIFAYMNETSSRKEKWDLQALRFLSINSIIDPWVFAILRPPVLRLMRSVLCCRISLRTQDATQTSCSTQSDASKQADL
T2 sequence (P35408 whole entry): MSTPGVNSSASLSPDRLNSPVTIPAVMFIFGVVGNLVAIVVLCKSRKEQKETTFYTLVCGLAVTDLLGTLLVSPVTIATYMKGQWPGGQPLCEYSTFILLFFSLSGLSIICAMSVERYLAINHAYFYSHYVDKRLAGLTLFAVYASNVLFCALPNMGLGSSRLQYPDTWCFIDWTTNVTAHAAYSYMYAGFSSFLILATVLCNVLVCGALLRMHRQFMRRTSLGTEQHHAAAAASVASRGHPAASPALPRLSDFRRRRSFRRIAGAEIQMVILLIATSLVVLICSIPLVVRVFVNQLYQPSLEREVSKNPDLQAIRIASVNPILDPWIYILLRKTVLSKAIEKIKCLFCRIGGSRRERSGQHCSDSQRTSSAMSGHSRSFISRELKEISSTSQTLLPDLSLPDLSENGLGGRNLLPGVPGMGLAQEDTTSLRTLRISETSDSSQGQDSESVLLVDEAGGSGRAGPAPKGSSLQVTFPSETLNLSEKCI

Usually pEC50 stands for the negative decadic logarithm of the EC50, by convention in mol/L. Low values mean a large EC50, high ones a small EC50. `O=C(O)c1ccc(CCCN2[C@@H](/C=C/C(O)Cc3cccc(C(F)(F)F)c3)CCS2(=O)=O)s1` (stereo partly drawn) [Compound 14, 5-(3-((3R)-3-((E)-3-Hydroxy-4-(3-(trifluoromethyl)phenyl)but-1-en-1-yl)-1,1-dioxidoisothiazolidin-2-yl)propyl)thiophene-2-carboxylic acid]: the pEC50 on EP2 [1] is 7.42; on EP4 [2] it was 7.28; on EP4 [3], 9.00; at EP2 [4] it was 7.02.
